Converted amounts (≈) assume the structure as drawn.

For this series the following is noted: buffer; pH 7.4; 200.0 µM.
Compound `CC(C)(C)c1ccc(C(=S)N2CCN(c3ccccc3)CC2)cc1` showed a solubility (kinetic) of under 0.4 µg/mL.
Compound `O=C(Cc1ccc([N+](=O)[O-])cc1)Nc1nccs1` showed a kinetic solubility of 4.8 µg/mL (≈ 18.2 µM).
The figure for `CCOc1ccc2[nH]c3c(NCCN(CC)CC)ncnc3c2c1` is 43.2 µg/mL (≈ 132 µM).
On to `CC(C(=O)Nc1ccccc1)C(=O)Nc1ccccc1`, for which the solubility (kinetic) stood at 21.8 µg/mL (≈ 81.2 µM).
With `O=C1CCc2ccc(OCCCCN3CCN(c4cccc(Cl)c4Cl)CC3)cc2N1` the figure was under 0.3 µg/mL.
The compound `O=S(=O)(Nc1ccc(S(=O)(=O)N2CCCC2)cc1)c1ccc(F)cc1F` gave a kinetic solubility of over 60.4 µg/mL.
For the compound `Cl.O=C(O)CC1NCCc2ccccc21` (centres undefined), the kinetic solubility is over 34.2 µg/mL.
With `COc1ccccc1CNC(c1ccccc1)c1ccccc1` the figure was 3.3 µg/mL (≈ 10.9 µM); with `CCNC(=S)NC(=NCc1cccnc1)Nc1nc(C)cc(C)n1`, 46.7 µg/mL (≈ 136 µM).
For `CN1CCN(C(=O)CCc2nc(-c3ccc(Cl)cc3)no2)CC1`, the solubility (kinetic) was over 50.2 µg/mL.
`C=CCNc1nc(N)c([N+](=O)[O-])c(Nc2cccc(Cl)c2)n1` registered a kinetic solubility of 0.1 µg/mL (≈ 0.312 µM).
With `O=C(Nc1cc(S(=O)(=O)Nc2ccccc2Cl)ccc1O)c1ccc(F)cc1F` the figure was 3.3 µg/mL (≈ 7.52 µM); with `COc1ccccc1CNC(=O)Cn1c(=O)oc2cc(Cl)ccc21`, 1.7 µg/mL (≈ 4.9 µM); with `CC(C)(C)CC(=O)Nc1ccc(S(=O)(=O)N2CCCC2)cc1`, over 48.7 µg/mL.
In turn, `O=C(c1c(F)cccc1F)N(Cc1cccs1)C1CCCC1` registered a solubility (kinetic) of 30.3 µg/mL (≈ 94.3 µM).
For the compound `CCCCn1c(=O)c(C(C)=O)c(O)c2ccccc21`, the solubility (kinetic) is 26.6 µg/mL (≈ 103 µM).
`COc1ccccc1CN(C)C(=O)CNC(=O)c1cccc(Cl)c1` came in with a kinetic solubility of 50.8 µg/mL (≈ 146 µM).
For the compound `Cc1c(Cl)cccc1NC(=S)NC1CCCC1`, the solubility (kinetic) turned out to be 7.5 µg/mL (≈ 27.9 µM).
The figure for `CC1(CCBr)C(=O)N(c2ccccc2)c2ccccc21` (centres undefined) is 22.9 µg/mL (≈ 69.3 µM); for `CCCCSc1nc2sc3c(c2c(=O)[nH]1)CC(C)(CC)OC3` (centres undefined) it is 0.5 µg/mL (≈ 1.48 µM); for `Cc1ccc(C(=O)Nc2ccc(N3CCN(C)CC3)cc2)c(Cl)c1` it is over 51.6 µg/mL.
The compound `O=C(CSc1nc2c(cnn2-c2ccccc2)c(=O)[nH]1)NCC1CCCO1` (centres undefined) came in with a solubility (kinetic) of over 57.8 µg/mL.
The figure for `N#Cc1ccc(NC(=O)CN2CCN(c3ccccn3)CC2)cc1` is 16.4 µg/mL (≈ 51 µM).
With `CC(C)c1ccc(NC(=S)NNC(=O)c2cccnc2)cc1`, the solubility (kinetic) was over 47.2 µg/mL.
The figure for `CN(CCc1ccccc1)Cc1c[nH]c2ccccc12.O=C(O)C(=O)O` is over 53.2 µg/mL; for `O=C(Nc1ccc2ccccc2n1)c1ccc(Cl)cc1` it is under 0.3 µg/mL.
With `COc1ccc(C(=O)Nc2ccc(NC(=O)C3CC3)nc2)cc1` the figure was 1.7 µg/mL (≈ 5.46 µM); with `Cc1cccc(OCC(=O)OCC(=O)Nc2ccc(Cl)cn2)c1`, 32.5 µg/mL (≈ 97.1 µM).
Consider `N#C/C(=C\c1cccnc1)C(=O)Nc1ccccc1[N+](=O)[O-]`, for which the kinetic solubility came out at 30.2 µg/mL (≈ 103 µM).
With `C[C@H](NC(=O)N1CCC(Cc2ccccc2)CC1)C(=O)O` the figure was over 43.6 µg/mL; with `CCOc1ccc(N/C=C/C(=O)c2ccc(OC)c(OC)c2)cc1`, 2.2 µg/mL (≈ 6.72 µM).
With `Cn1c(-c2nonc2N)nc2ccccc21` the figure was 4.3 µg/mL (≈ 20 µM); with `Cc1nc2ccccc2c2c1CC(C)S2` (centres undefined), 24.5 µg/mL (≈ 114 µM); with `CC(=O)Nc1ccc(NS(=O)(=O)c2cc([N+](=O)[O-])ccc2C)cc1`, 2.6 µg/mL (≈ 7.44 µM).
Consider `CCc1cccc(C)c1NC(=O)CN1C(=O)NC(CCc2ccccc2)C1=O` (centres undefined), for which the kinetic solubility is 7.6 µg/mL (≈ 20 µM).
On to `CCOc1ccccc1C(=O)N[C@H](C(=O)OCc1csc(CC(=O)Nc2ccc(C)cc2)n1)C(C)C`, for which the solubility (kinetic) was determined as 6.9 µg/mL (≈ 13.5 µM).
With `Cc1nc2cc(NC(=O)c3ccc(Cl)cc3)ccc2n1C`, the solubility (kinetic) amounted to 1 µg/mL (≈ 3.34 µM).
`CC1CCC(NC(=O)Cn2cnc3sccc3c2=O)CC1` (centres undefined) had a kinetic solubility of over 45.8 µg/mL.
With `CCc1ccccc1OCCCN1CCCC1.O=C(O)C(=O)O`, the solubility (kinetic) came out at 43.9 µg/mL.
With `COc1ccc(N2CCOCC2)c(NC(=O)c2cccnc2)c1` the figure was over 47 µg/mL; with `COc1ccc(CC(=O)NCC2CCCCC2)cc1OC`, over 43.7 µg/mL.
Consider `CN(C)C(=O)N(CCCN1CCOCC1)Cc1cccc2ccccc12`, for which the solubility (kinetic) is over 53.3 µg/mL.
The figure for `COc1cccc(NC(=S)NCc2ccc(F)cc2)c1` is 37.9 µg/mL (≈ 131 µM).
With `O=C(Cn1c(=O)oc2ccccc21)NCCc1ccccc1` the figure was 44 µg/mL (≈ 148 µM); with `CC(=O)Nc1ccc(NC(=O)COC(=O)c2cc(S(=O)(=O)N3CCCC3)ccc2O)cc1`, over 69.2 µg/mL.
The figure for `COC(=O)c1ccc(Cl)c(NC(=O)c2cccc([N+](=O)[O-])c2C)c1` is 0.7 µg/mL (≈ 2.01 µM); for `CC(CCc1ccccc1)NC(=O)CCc1cn(C)c2ccccc12` (centres undefined) it is 6.2 µg/mL (≈ 18.5 µM).
With `CC(NC(=O)c1ccc(Br)o1)c1ccc(-n2ccnc2)cc1` (centres undefined), the solubility (kinetic) was over 54 µg/mL.
With `CCCNC(=O)CN1C(=O)NC(CCSC)C1=O` (centres undefined) the figure was over 41 µg/mL.
The figure for `Cc1ccccc1NC(=S)N1CCN(c2ccccc2Cl)CC1` is 17.5 µg/mL (≈ 50.6 µM); for `O=C(Nc1ncccn1)c1cc(-c2ccc(F)cc2)nc2ccccc12` it is 44.5 µg/mL (≈ 129 µM); for `CC(C)(C)CC(=O)NC(=S)NCc1ccco1` it is 9.3 µg/mL (≈ 36.6 µM).
As for `COCc1cc(C)nc(Nc2ccccc2OC)c1C#N`, the kinetic solubility amounted to 0.3 µg/mL (≈ 1.06 µM).
With `Cc1ccccc1C(=O)NCCNC(=O)c1cnccn1` the figure was 35.7 µg/mL (≈ 126 µM).
With `CNCCc1c[nH]c2ccc(O)cc12.O=C(O)C(=O)O` the figure was over 42 µg/mL.
The figure for `CCOP(=O)(OCC)C1NC(=O)N(c2ccccc2)C1=O` (centres undefined) is over 46.8 µg/mL; for `O=C(CNC(=O)c1cccc(OC(F)F)c1)Nc1ccc(Cl)cc1` it is 3.4 µg/mL (≈ 9.58 µM).
In turn, `C=CC(=O)NN(C)c1ncc(C(F)(F)F)cc1Cl` returned a kinetic solubility of over 41.9 µg/mL.
With `CC1(C)Cc2nc(Cl)c(C(N)=O)cc2CO1` the figure was over 36.1 µg/mL; with `O=C(COc1ccc(Cl)cc1Cl)c1ccc[nH]1`, 34.9 µg/mL (≈ 129 µM).
With `COc1ccc(OC)c(N(CC(=O)Nc2cccc3ccccc23)S(C)(=O)=O)c1` the figure was 43 µg/mL (≈ 104 µM).
Compound `CCOC(=O)N1CCC(NC(=O)CCCC(=O)O)CC1` displayed a kinetic solubility of over 42.9 µg/mL.
The figure for `COc1ccc(C(C)=O)cc1COC(=O)[C@H](Cc1ccccc1)NC(=O)c1ccco1` is 8 µg/mL (≈ 19 µM); for `O=C(NCc1ccc(Cl)cc1Cl)Nc1ccccc1` it is 0.4 µg/mL (≈ 1.36 µM); for `O=[N+]([O-])c1cccc2c(N3CCCC3)ccnc12` it is over 36.5 µg/mL.
With `O=C(COC(=O)C1CCCC1)NCc1ccc(Cl)cc1` the figure was over 44.4 µg/mL; with `Cc1ccc(C(=O)Nc2ccccc2N2CCCCC2)o1`, 2.8 µg/mL (≈ 9.85 µM).
With `O=C(O)c1cccc2c1C(=O)N(CC1CCCO1)C2` (centres undefined) the figure was over 39.2 µg/mL.
With `Cc1noc(C)c1C(=O)OC(C)C(=O)NC(C)c1ccc(Cl)cc1Cl` (centres undefined), the kinetic solubility was determined as 10.6 µg/mL (≈ 27.5 µM).
Take `NC(=O)c1ccsc1NC(=O)CSc1nncs1`: the solubility (kinetic) is over 45.1 µg/mL.
With `O=C(NC1CCCCC1)c1c2c(nc3ccccc13)CCC2` the figure was 25.9 µg/mL (≈ 88 µM).
With `O=C1NC(CCc2ccccc2)C(=O)N1CCOc1ccccc1` (centres undefined), the kinetic solubility was determined as 2.5 µg/mL (≈ 7.71 µM).
`COc1cc(OC)cc(-c2nc(-c3cccs3)no2)c1` had a kinetic solubility of under 0.3 µg/mL.
As to `O=[N+]([O-])C(C1CCS(=O)(=O)C1)C1CCS(=O)(=O)C1` (centres undefined), the kinetic solubility was 41.8 µg/mL (≈ 141 µM).
With `N#C/C(=C\c1cccnc1)C(=O)Nc1cccc(Cl)c1` the figure was 10 µg/mL (≈ 35.2 µM); with `CSc1sc(C#N)c2c1/C(=N\O)CCC2`, 1 µg/mL (≈ 4.2 µM); with `CCCCNC(=O)C1CCC(=O)N1CCc1ccccc1` (centres undefined), 42.4 µg/mL (≈ 147 µM).
In the case of `O=C1CC(NCc2ccc(F)cc2)C(=O)N1c1ccccc1` (centres undefined), the solubility (kinetic) is 43.6 µg/mL (≈ 146 µM).
The figure for `Cc1cc(C)c(C(=O)Nc2ccccc2)c(CC(C)(C)C(=O)O)c1` is over 48.8 µg/mL; for `CCOc1ncc(S(=O)(=O)N2CCN(CC)CC2)cc1C(=O)O` it is over 51.5 µg/mL.
In the case of `Cc1cc(C)c(C)c(OCCCCN2CCCCC2)c1`, the solubility (kinetic) was found to be 29.4 µg/mL (≈ 107 µM).
The figure for `Cc1cccc(NC(=O)Nc2ccccc2[N+](=O)[O-])n1` is 0.3 µg/mL (≈ 1.1 µM).
With `COc1cccc(-c2nc(-c3cccs3)no2)c1` the figure was under 0.3 µg/mL; with `Cc1nc2c(c(=O)c3ccccc3n2C)c(=O)n1-c1ccc(F)cc1`, 13.7 µg/mL (≈ 40.9 µM).
As for `O=C(COC(=O)c1ccccc1Br)NCCC1=CCCCC1`, the kinetic solubility worked out at 22.5 µg/mL (≈ 61.4 µM).
The figure for `O=C(COC(=O)c1ccc(Cl)nc1)c1ccc2c(c1)OCCO2` is 14.7 µg/mL (≈ 44 µM).
With `CC1CCCN(C(=O)c2cc(-c3ccco3)nc3ccccc23)C1` (centres undefined) the figure was over 48.1 µg/mL; with `O=Cc1c(NCc2ccccc2F)c2ccccc2[nH]c1=O`, 4.2 µg/mL (≈ 14.2 µM).
With `CNC(=O)CSc1nnc(-c2ccco2)n1-c1cccc(C)c1C`, the kinetic solubility is over 51.4 µg/mL.
With `CC(=O)c1sc(-c2cccc(Cl)c2)nc1C` the figure was 3.1 µg/mL (≈ 12.3 µM); with `O=C(Nc1cccc(S(=O)(=O)N2CCCC2)c1)c1ccncc1`, 46.9 µg/mL (≈ 142 µM).
`O=S(=O)(c1cnccc1N1CCN(CCO)CC1)N1CCCCC1` came in with a kinetic solubility of over 53.2 µg/mL.
`Cc1cc(NC(=O)CSc2nc(C)c(C)n2CC(C)C)no1` returned a kinetic solubility of over 48.4 µg/mL.
Compound `S=C1NC2(CCCCCC2)N=C1c1ccccc1` displayed a kinetic solubility of 2.8 µg/mL (≈ 10.8 µM).
On to `Cc1nc2ccccc2c(=O)n1-c1cc(F)ccc1F`, for which the kinetic solubility was over 40.8 µg/mL.
The compound `Cc1nc2ccc(Cl)cc2nc1C` came in with a solubility (kinetic) of 9.4 µg/mL (≈ 48.8 µM).
In turn, `O=C1COc2ccccc2N1Cc1c(F)cccc1Cl` registered a solubility (kinetic) of 20 µg/mL (≈ 68.6 µM).
In turn, `CCN(C(=O)COc1nc(C)cc(C)c1C#N)c1ccccc1` showed a solubility (kinetic) of 9.3 µg/mL (≈ 30.1 µM).
The figure for `CC1(C)Cc2c(C#N)c(SCCO)nc(N3CCOCC3)c2CO1` is over 52.4 µg/mL; for `CCN(C(=O)C(C)Sc1nnc(-c2ccncc2)n1C)C1CCCCC1` (centres undefined) it is over 56 µg/mL; for `COc1cc(CCC(C)NCc2ccccc2)ccc1O` (centres undefined) it is over 42.8 µg/mL.
`CN(CCC#N)C(=O)CC(Cc1ccccc1)C1CCOC(C)(C)C1` (centres undefined) registered a solubility (kinetic) of over 51.4 µg/mL.
The figure for `CCc1ccccc1NC(=O)NC1CCCCCCC1` is 0.5 µg/mL (≈ 1.82 µM); for `Cc1noc(C)c1C(=O)Nc1cccc2ncccc12` it is over 40.1 µg/mL.

One may read the solubility (kinetic) as the concentration staying in solution when a stock, usually in DMSO, is diluted into the medium.
